These results are taken from US6511993B1, “Metalloprotease inhibitors” (priority 1999, dated 2003).

In data set [1] the test system is human ovarian carcinoma xenografts. The settings on record: mice carrying human ovarian carcinoma xenografts; Cancer Res., 1993, 53, 2087; cited from earlier work. (In general: In xenograft studies the graft and the host belong to different species.)
The target in a further data set is T1, MMP-1 (Homo sapiens, UniProt P03956).
T1 construct: Catalytic domain MMP-1 was prepared; made in house
T1 sequence (P03956 100-269 limits assumed): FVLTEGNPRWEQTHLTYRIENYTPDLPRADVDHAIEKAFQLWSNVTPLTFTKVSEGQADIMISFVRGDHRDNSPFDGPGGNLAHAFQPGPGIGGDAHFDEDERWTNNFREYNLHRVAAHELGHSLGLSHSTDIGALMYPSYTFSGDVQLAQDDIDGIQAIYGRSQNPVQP
Put plainly: Inhibition of MMP-1, fluorogenic peptide cleavage. In kind it is biochemical. The settings on record: catalytic domain MMP-1, 1 nM enzyme, 10 μM substrate. The method, then: (§1) The biological activities of the compounds of the present invention were determined by the following test methods, which are based on the ability of the compounds to inhibit the cleavage of various fluorogenic peptides by MMPs 1, 2, 3, 9, 13 and 14.
Catalytic domain MMP-1 was prepared in Pfizer Central Research laboratories in a standard manner from sources known to the skilled person, including some of the references mentioned herein. A stock solution of MMP-1 (1 μM) was activiated by the addition of aminophenylmercuric acetate (APMA), at a final concentration of 1 mM, for 20 minutes at 37° C. MMP-1 was then diluted in Tris-HCl assay buffer (50 mM Tris, 200 mM NaCl, 5 mM CaCl2, 20 μM ZnSO4 and 0.05% Brij 35, pH 7.5) to a concentration of 10 nM. The final concentration of enzyme used in the assay was 1 nM.
The fluorogenic substrate used in this assay was Dnp-Pro-β-cyclohexyl-Ala-Gly-Cys(Me)-His-Ala-Lys-(N-Me-Ala)-NH2 as originally described in Anal. Biochem., 1993, 212, 58. The final substrate concentration used in the assay was 10 μM.
(§2) Determination of Enzyme Inhibition
(§3) The test compound was dissolved in dimethyl sulphoxide and diluted with assay buffer so that no more than 1% dimethyl sulphoxide was present. Test compound and enzyme were added to each well of a 96 well plate and allowed to equilibrate for 15 minutes at 37° C. in an orbital shaker prior to the addition of substrate. Plates were then incubated for 1 hour at 37° C. prior to determination of fluorescence (substrate cleavage) using a fluorimeter (Fluostar; BMG LabTechnologies, Aylesbury, UK) at an excitation wavelength of 355 nm and emission wavelength of 440 nm. The potency of inhibition was measured from the amount of substrate cleavage obtained using a range of test compound concentrations and, from the resulting dose-response curve, an IC50, value (the concentration of inhibitor required to inhibit 50% of the enzyme activity) was calculated.

For another data set, the target named is MMP-9 (Homo sapiens, UniProt P14780). Nature of the data set: Inhibition of MMP-9, fluorogenic peptide cleavage. The class given is biochemical. The settings on record: catalytic domain MMP-9, 1 nM enzyme, 5 μM substrate. The method, then: as §1
MMP-9, sequence (P14780 whole entry, the tested form may be a part): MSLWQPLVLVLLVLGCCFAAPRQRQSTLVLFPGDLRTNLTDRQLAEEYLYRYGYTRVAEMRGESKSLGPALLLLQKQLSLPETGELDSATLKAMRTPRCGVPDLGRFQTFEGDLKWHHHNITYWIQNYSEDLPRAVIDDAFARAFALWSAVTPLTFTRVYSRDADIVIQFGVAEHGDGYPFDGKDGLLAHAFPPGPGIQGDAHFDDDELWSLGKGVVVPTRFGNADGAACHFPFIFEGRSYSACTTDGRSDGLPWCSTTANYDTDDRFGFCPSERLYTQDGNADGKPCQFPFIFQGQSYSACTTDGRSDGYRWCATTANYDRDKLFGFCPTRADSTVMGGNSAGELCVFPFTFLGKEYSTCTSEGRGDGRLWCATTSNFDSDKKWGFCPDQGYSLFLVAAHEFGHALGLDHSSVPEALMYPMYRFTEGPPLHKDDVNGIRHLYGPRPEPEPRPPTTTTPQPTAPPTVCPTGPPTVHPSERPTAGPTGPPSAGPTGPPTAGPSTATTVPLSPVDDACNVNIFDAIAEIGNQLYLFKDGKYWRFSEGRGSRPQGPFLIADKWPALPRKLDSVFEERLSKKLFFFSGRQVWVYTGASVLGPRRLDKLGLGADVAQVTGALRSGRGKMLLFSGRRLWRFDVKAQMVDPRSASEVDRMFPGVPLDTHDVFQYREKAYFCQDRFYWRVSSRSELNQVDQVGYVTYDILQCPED
(§4) The assays for MMPs 2, 3, 9 and 14 are based upon the original protocol described in Fed. Euro. Biochem. Soc., 1992, 296, 263, with the minor modifications described below.
(§5) Inhibition of MMP-2, MMP-3 and MMP-9
(§6) Catalytic domains MMP-2, MMP-3 and MMP-9 were prepared in Pfizer Central Research laboratories in a standard manner from sources known to the skilled person, including some of the references mentioned herein. A stock solution of MMP-2, MMP-3 or MMP-9 (1 μM) was activated by the addition of APMA. For MMP-2 and MMP-9, a final concentration of 1 mM APMA was added, followed by incubation for 1 hour at 37° C. MMP-3 was activated by the addition of 2 mM APMA, followed by incubation for 3 hours at 37° C. The enzymes were then diluted in Tris-HCl assay buffer (100 mM Tris, 100 mM NaCl, 10 mM CaCl2 and 0.16% Brij 35, pH 7.5) to a concentration of 10 nM. The final concentration of enzyme used in the assays was 1 nM.
(§7) The fluorogenic substrate used in this screen was Mca-Arg-Pro-Lys-Pro-Tyr-Ala-Nva-Trp-Met-Lys(Dnp)-NH2 (Bachem Ltd., Essex, UK) as originally described in J. Biol. Chem., 1994, 269, 20952. This substrate was selected because it has a balanced hydrolysis rate against MMPs 2, 3 and 9 (kcat/km of 54,000, 59,400 and 55,300 s^−1 M^−1 respectively). The final substrate concentration used in the assay was 5 μM.
as §2
as §3, with “at 37° C., prior to” for “at 37° C. prior to”, “of fluorescence using a” for “of fluorescence (substrate cleavage) using a”, “wavelength of 328 nm and” for “wavelength of 355 nm and”, “wavelength of 393 nm. The” for “wavelength of 440 nm. The”, “curve, an IC50 value (the” for “curve, an IC50, value (the”

For another data set, the target named is T2, MMP-3 (Homo sapiens, UniProt P08254).
T2 construct: Catalytic domains MMP-2, MMP-3 and MMP-9 were prepared; made in house
T2 sequence (P08254 100-272 limits assumed): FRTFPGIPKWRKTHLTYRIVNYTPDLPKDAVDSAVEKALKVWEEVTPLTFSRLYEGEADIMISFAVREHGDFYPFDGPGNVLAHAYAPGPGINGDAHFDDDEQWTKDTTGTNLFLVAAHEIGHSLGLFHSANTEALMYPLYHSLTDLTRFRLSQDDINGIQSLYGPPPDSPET
Nature of the data set: Inhibition of MMP-3, fluorogenic peptide cleavage. The class given is biochemical. The settings on record: catalytic domain MMP-3, 1 nM enzyme, 5 μM substrate. The method, then: as §1, §4, §5, §6, §7, §2
as §3, with “at 37° C., prior to” for “at 37° C. prior to”, “of fluorescence using a” for “of fluorescence (substrate cleavage) using a”, “wavelength of 328 nm and” for “wavelength of 355 nm and”, “wavelength of 393 nm. The” for “wavelength of 440 nm. The”, “curve, an IC50 value (the” for “curve, an IC50, value (the”

In another data set the target is MMP-2 (Homo sapiens, UniProt P08253). Nature of the data set: Inhibition of MMP-2, fluorogenic peptide cleavage. The class given is biochemical. The settings on record: catalytic domain MMP-2, 1 nM enzyme, 5 μM substrate. The method, then:
as §1, §4, §5, §6, §7, §2
as §3, with “at 37° C., prior to” for “at 37° C. prior to”, “of fluorescence using a” for “of fluorescence (substrate cleavage) using a”, “wavelength of 328 nm and” for “wavelength of 355 nm and”, “wavelength of 393 nm. The” for “wavelength of 440 nm. The”, “curve, an IC50 value (the” for “curve, an IC50, value (the”

In a further data set the target is T3, MMP-14 (Homo sapiens, UniProt P50281).
T3 construct: Catalytic domain MMP-14 was prepared; made in house
Nature of the data set: Inhibition of MMP-14, fluorogenic peptide cleavage. The settings on record: catalytic domain MMP-14, 1 nM enzyme. In kind it is biochemical. The method, then: as §1, §4
Catalytic domain MMP-14 was prepared in Pfizer Central Research laboratories in a standard manner from sources known to the skilled person, including some of the references mentioned herein. A 10 μM enzyme stock solution was activated for 20 minutes at 25° C. following the addition of 5 μg/ml of trypsin (Sigma, Dorset, UK). The trypsin activity was then neutralised by the addition of 50 μg/ml of soyabean trypsin inhibitor (Sigma, Dorset, UK), prior to dilution of this enzyme stock solution in Tris-HCl assay buffer (100 mM Tris, 100 mM NaCl, 10 mM CaCl2, 0.16% Brij 35, pH 7.5) to a concentration of 10 nM. The final concentration of enzyme used in the assay was 1 nM.
The fluorogenic substrate used in this screen was Mca-Pro-Leu-Gly-Leu-Dpa-Ala-Arg-NH2 (Bachem Ltd., Essex, UK) as described in J. Biol. Chem., 1996, 271, 17119.
Determination of enzyme inhibition
This was performed in the same manner as described for MMPs 2, 3 and 9.

MMP-2, sequence (P08253 whole entry, the tested form may be a part): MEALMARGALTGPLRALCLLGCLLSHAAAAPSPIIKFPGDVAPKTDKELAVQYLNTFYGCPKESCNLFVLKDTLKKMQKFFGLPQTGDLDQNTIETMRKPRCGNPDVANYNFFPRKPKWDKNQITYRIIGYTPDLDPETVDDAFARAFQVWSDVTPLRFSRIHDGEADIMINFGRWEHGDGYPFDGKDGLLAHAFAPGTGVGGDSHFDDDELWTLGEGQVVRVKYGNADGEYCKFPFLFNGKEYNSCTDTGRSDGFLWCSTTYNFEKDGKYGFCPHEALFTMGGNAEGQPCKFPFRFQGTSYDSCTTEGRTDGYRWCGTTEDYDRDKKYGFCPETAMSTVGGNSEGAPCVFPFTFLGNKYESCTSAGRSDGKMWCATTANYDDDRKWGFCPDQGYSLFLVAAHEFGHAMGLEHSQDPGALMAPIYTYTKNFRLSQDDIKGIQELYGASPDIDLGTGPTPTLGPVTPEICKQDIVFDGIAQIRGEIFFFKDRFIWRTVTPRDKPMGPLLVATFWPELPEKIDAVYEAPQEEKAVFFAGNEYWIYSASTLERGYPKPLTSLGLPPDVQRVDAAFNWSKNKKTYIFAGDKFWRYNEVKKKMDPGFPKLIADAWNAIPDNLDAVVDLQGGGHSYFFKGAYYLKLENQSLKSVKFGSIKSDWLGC

On to `CNC(=O)[C@H](Cc1ccccc1)NC(=O)[C@H](CC(C)C)[C@H](CSc1cccs1)C(=O)NO` [BB-94], for which, in data set [1], the survival entry is reported as “prolong the survival” and the tumour burden result is “decrease the tumour burden”.
By IC50 is commonly meant the concentration that gives 50% inhibition. High values mean lower potency, low ones higher potency. The melting point is the temperature of the solid-liquid transition. As for `Cc1cc(C2CCN(S(=O)(=O)C3(C(=O)NO)CCOCC3)CC2)ccc1-c1cccc(OC[C@H](O)CO)n1` [Example 5, N-Hydroxy 4-{[4-(4-{6-[(2R)-2,3-dihydroxy-1-propoxy]pyridin-2-yl}-3-methylphenyl)piperidin-1-yl]sulphonyl}tetrahydro-2H-pyran-4-carboxamide], the melting point was in the range of 125 to 130 °C. The IC50 against MMP-1 was over 1000 nM. The same molecule showed an IC50 on MMP-9 of over 70 nM. For the same molecule, the IC50 against MMP-3 is under 10 nM. Besides, the IC50 against MMP-2 was over 100 nM. Besides, the IC50 against MMP-14 was over 2000 nM.
As for `Cc1cc(C2CCN(S(=O)(=O)C3(C(=O)NO)CCOCC3)CC2)ccc1-c1cccc(OCCN)c1.Cl` [Example 14, N-Hydroxy 4-{[4-(-4-{3-[2-aminoethoxy]phenyl}-3-methylphenyl)piperidin-1-yl]sulphonyl}tetrahydro-2H-pyran-4-carboxamide hydrochloride], the melting point fell in the range of 208 to 210 °C. At MMP-1, the IC50 was over 1000 nM. On MMP-9, this molecule displayed an IC50 of over 70 nM. The molecule further displayed an IC50 at MMP-3 of under 10 nM. The molecule also gave a half-inhibitory concentration (IC50) against MMP-2 of over 100 nM. In addition, the IC50 against MMP-14 was over 2000 nM.
